From patent US12139520B2 (priority 2020, dated 2024)
Bridge positions count the residues as written; N and C are the ends. Square brackets hold non-standard residues; d marks the D form. Peptide text beside a SMILES is read from it. Hyp = O=C(O)[C@@H]1C[C@@H](O)CN1; Cit = NC(=O)NCCC[C@H](N)C(=O)O

How the values were obtained:
hAMY3 receptor = target: T1, hAMY3 receptor (Homo sapiens, UniProt O60896+P30988); assay: cAMP assay for in vitro receptor activation, hAMY3-R; format: cell-based; conditions: cAMP assay, hAMY3 receptor; read-out: hAMY3R EC50
T1 sequence (P30988 25-474): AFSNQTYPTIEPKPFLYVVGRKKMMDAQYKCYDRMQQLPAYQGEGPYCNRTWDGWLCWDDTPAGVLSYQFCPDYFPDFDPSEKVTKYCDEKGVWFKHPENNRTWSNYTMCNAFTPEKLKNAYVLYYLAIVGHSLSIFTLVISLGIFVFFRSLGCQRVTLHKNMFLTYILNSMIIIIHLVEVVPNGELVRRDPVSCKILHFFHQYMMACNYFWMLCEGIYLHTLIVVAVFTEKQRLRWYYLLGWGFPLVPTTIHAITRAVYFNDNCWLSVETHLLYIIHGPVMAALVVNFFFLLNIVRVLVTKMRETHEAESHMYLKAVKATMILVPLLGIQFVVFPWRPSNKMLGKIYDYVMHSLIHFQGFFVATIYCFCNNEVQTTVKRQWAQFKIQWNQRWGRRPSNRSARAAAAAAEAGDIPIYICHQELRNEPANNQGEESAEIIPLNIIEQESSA
T1 sequence (O60896 24-148 partner): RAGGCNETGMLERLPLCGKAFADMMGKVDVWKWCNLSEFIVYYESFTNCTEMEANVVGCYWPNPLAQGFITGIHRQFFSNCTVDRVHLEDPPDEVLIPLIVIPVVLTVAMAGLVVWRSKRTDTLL
Method in brief: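 Monoclonal cell line stably overexpressing hAMY3 receptor, plated in DPBS with 0.05% casein and 0.5 mM IBMX, was stimulated with graded compound doses for 30 min at room temperature. cAMP accumulation was read by time-resolved FRET one hour after adding detection reagents.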

[1] = Physical stability of peptide analogues (Thioflavin T fibrillation); format: physicochemical; conditions: maximum ThT signal normalized between hAMY maximum and buffer background; 40° C., shaking, four days; pH 7 per table title
Method in brief: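 ThT fluorescence (450 nm excitation, 480 nm emission; 4 μM dye) was read every 10 min over four days at 40° C under 700 rpm shaking stress, after 1 h in pH 4 acetate or pH 7 phosphate (50 mM). Peak smoothed signal expressed as percent, scaled between buffer background and hAMY maximum.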

Compound | EC50 (hAMY3 receptor) | Max ThT signal (%) [1]
CC[C@H](C)[C@H](NC(=O)[C@H](CCC(N)=O)NC(=O)[C@H](Cc1c[nH]cn1)NC(=O)[C@H](C)NC(=O)[C@H](CC(C)C)NC(=O)[C@H](CCCNC(=N)N)NC(=O)[C@H](CCC(N)=O)NC(=O)[C@@H](NC(=O)[C@@H](NC(=O)[C@@H]1CSSC[C@H](NC(=O)CN)C(=O)N[C@@H](CCCNC(=N)N)C(=O)N[C@@H](Cc2ccccc2)C(=O)NCC(=O)N[C@@H]([C@@H](C)O)C(=O)N1)[C@@H](C)O)C(C)C)C(=O)N[C@@H](Cc1ccc(O)cc1)C(=O)N[C@@H](CCC(N)=O)C(=O)N[C@@H](Cc1ccccc1)C(=O)N[C@H](C(=O)N[C@@H](CC(=O)O)C(=O)N[C@@H](CCCCN)C(=O)N[C@@H](CC(=O)O)C(=O)N[C@@H](CCCCN)C(=O)N[C@@H](CC(=O)O)C(=O)N[C@@H](CC(N)=O)C(=O)N[C@H](C(=O)N[C@@H](C)C(=O)N1CCC[C@H]1C(=O)N[C@@H](CCCNC(=N)N)C(=O)N[C@H](C(=O)N[C@@H](CC(N)=O)C(=O)N[C@H](C(=O)N[C@@H](CO)C(=O)N1CCC[C@H]1C(=O)N[C@@H](CCC(N)=O)C(=O)NCC(=O)N1C[C@H](O)C[C@H]1C(N)=O)C(C)C)[C@@H](C)O)C(C)C)[C@@H](C)O [compound 125] (H-GCRFGTCTVQRLAHQIYQFTDKDKDNVAPRTNVSPQG[Hyp]-NH2; disulfide 2-7; N-terminus assumed) | 0.027 nM | 7.200%
CC[C@H](C)[C@H](NC(=O)[C@H](CCC(N)=O)NC(=O)[C@H](Cc1c[nH]cn1)NC(=O)[C@H](C)NC(=O)[C@H](CC(C)C)NC(=O)[C@H](Cc1c[nH]c2ccccc12)NC(=O)[C@H](CCC(N)=O)NC(=O)[C@@H](NC(=O)[C@@H](NC(=O)[C@@H]1CSSC[C@H](NC(=O)CN)C(=O)N[C@@H](CCCNC(=N)N)C(=O)N[C@@H](Cc2ccccc2)C(=O)NCC(=O)N[C@@H]([C@@H](C)O)C(=O)N1)[C@@H](C)O)C(C)C)C(=O)N[C@@H](Cc1ccc(O)cc1)C(=O)N[C@@H](CCC(N)=O)C(=O)N[C@@H](Cc1ccccc1)C(=O)N[C@H](C(=O)N[C@@H](CC(=O)O)C(=O)N[C@@H](CCCCN)C(=O)N[C@@H](CC(=O)O)C(=O)N[C@@H](CCCCN)C(=O)N[C@@H](CC(=O)O)C(=O)N[C@@H](CC(N)=O)C(=O)N[C@H](C(=O)N[C@@H](C)C(=O)N1CCC[C@H]1C(=O)N[C@@H](CCCNC(=N)N)C(=O)N[C@H](C(=O)N[C@@H](CC(N)=O)C(=O)N[C@H](C(=O)N[C@@H](CO)C(=O)N1CCC[C@H]1C(=O)N[C@@H](CCC(N)=O)C(=O)NCC(=O)N[C@@H](Cc1ccc(O)cc1)C(N)=O)C(C)C)[C@@H](C)O)C(C)C)[C@@H](C)O [compound 340] (H-GCRFGTCTVQWLAHQIYQFTDKDKDNVAPRTNVSPQGY-NH2; disulfide 2-7; N-terminus assumed) | 0.022 nM | 1.700%

Molecules with a lower EC50 (hAMY3 receptor), results first:

EC50 (hAMY3 receptor) | Max ThT signal (%) [1] | Compound
0.015 nM | 4.000% | CC[C@H](C)[C@H](NC(=O)[C@H](CC(N)=O)NC(=O)[C@@H](NC(=O)[C@H](CCCNC(=N)N)NC(=O)[C@@H]1CCCN1C(=O)[C@H](C)NC(=O)[C@@H](NC(=O)[C@H](CC(N)=O)NC(=O)[C@H](CC(=O)O)NC(=O)[C@H](CCCCN)NC(=O)[C@H](CC(=O)O)NC(=O)[C@H](CCCCN)NC(=O)[C@H](CC(=O)O)NC(=O)[C@@H](NC(=O)[C@H](Cc1ccccc1)NC(=O)[C@H](CCC(N)=O)NC(=O)[C@H](Cc1ccc(O)cc1)NC(=O)[C@@H](NC(=O)[C@H](CCC(N)=O)NC(=O)[C@H](Cc1c[nH]cn1)NC(=O)[C@H](C)NC(=O)[C@H](CC(C)C)NC(=O)[C@H](CCCNC(=N)N)NC(=O)[C@H](CCC(N)=O)NC(=O)[C@@H](NC(=O)[C@@H](NC(=O)[C@@H]1CSSC[C@H](NC(=O)CN)C(=O)N[C@@H](CCCNC(=N)N)C(=O)N[C@@H](Cc2ccccc2)C(=O)NCC(=O)N[C@@H]([C@@H](C)O)C(=O)N1)[C@@H](C)O)C(C)C)[C@@H](C)CC)[C@@H](C)O)C(C)C)[C@@H](C)O)C(=O)NCC(=O)N1CCC[C@H]1C(=O)N[C@@H](CC(N)=O)C(=O)NCC(=O)N1C[C@H](O)C[C@H]1C(N)=O [compound 81] (H-GCRFGTCTVQRLAHQIYQFTDKDKDNVAPRTNIGPNG[Hyp]-NH2; disulfide 2-7; N-terminus assumed)
0.016 nM | 20.950% | CC[C@H](C)[C@H](NC(=O)[C@H](CCC(N)=O)NC(=O)[C@H](Cc1c[nH]cn1)NC(=O)[C@H](C)NC(=O)[C@H](CC(C)C)NC(=O)[C@H](CCCNC(N)=O)NC(=O)[C@H](CCC(N)=O)NC(=O)[C@@H](NC(=O)[C@@H](NC(=O)[C@@H]1CSSC[C@H](NC(=O)[C@@H](N)CCCCN)C(=O)N[C@@H](CC(N)=O)C(=O)N[C@@H]([C@@H](C)O)C(=O)N[C@@H](C)C(=O)N[C@@H]([C@@H](C)O)C(=O)N1)[C@@H](C)O)C(C)C)C(=O)N[C@@H](Cc1ccc(O)cc1)C(=O)N[C@@H](CCC(N)=O)C(=O)N[C@@H](Cc1ccccc1)C(=O)N[C@H](C(=O)N[C@@H](CC(=O)O)C(=O)N[C@@H](CCCCN)C(=O)N[C@@H](CC(=O)O)C(=O)N[C@@H](CCCCN)C(=O)N[C@@H](CC(=O)O)C(=O)N[C@@H](CC(N)=O)C(=O)N[C@H](C(=O)N[C@@H](C)C(=O)N1CCC[C@H]1C(=O)N[C@@H](CCCNC(=N)N)C(=O)N[C@H](C(=O)N[C@@H](CCCCN)C(=O)N[C@H](C(=O)NCC(=O)N[C@@H](CO)C(=O)N[C@@H](CC(N)=O)C(=O)NCC(=O)N[C@@H](Cc1ccc(O)cc1)C(N)=O)C(C)C)[C@@H](C)O)C(C)C)[C@@H](C)O [compound 257] (H-KCNTATCTVQ[Cit]LAHQIYQFTDKDKDNVAPRTKVGSNGY-NH2; disulfide 2-7; N-terminus assumed)
0.016 nM | 2.000% | CC[C@H](C)[C@H](NC(=O)[C@H](CCC(N)=O)NC(=O)[C@H](Cc1c[nH]cn1)NC(=O)[C@H](C)NC(=O)[C@H](CC(C)C)NC(=O)[C@H](CCCNC(=N)N)NC(=O)[C@H](CCC(N)=O)NC(=O)[C@@H](NC(=O)[C@@H](NC(=O)[C@@H]1CSSC[C@H](NC(=O)CN)C(=O)N[C@@H](CCCNC(=N)N)C(=O)N[C@@H](Cc2ccccc2)C(=O)NCC(=O)N[C@@H]([C@@H](C)O)C(=O)N1)[C@@H](C)O)C(C)C)C(=O)N[C@@H](Cc1ccc(O)cc1)C(=O)N[C@@H](CCC(N)=O)C(=O)N[C@@H](Cc1ccccc1)C(=O)N[C@H](C(=O)N[C@@H](CC(=O)O)C(=O)N[C@@H](CCCCN)C(=O)N[C@@H](CC(=O)O)C(=O)N[C@@H](CCCCN)C(=O)N[C@@H](CC(=O)O)C(=O)N[C@@H](CC(N)=O)C(=O)N[C@H](C(=O)N[C@@H](C)C(=O)N1CCC[C@H]1C(=O)N[C@@H](CCCNC(=N)N)C(=O)N[C@H](C(=O)N[C@@H](CC(N)=O)C(=O)N[C@H](C(=O)NCC(=O)N1CCC[C@H]1C(=O)N[C@@H](CC(N)=O)C(=O)NCC(=O)N1C[C@H](O)C[C@H]1C(N)=O)C(C)C)[C@@H](C)O)C(C)C)[C@@H](C)O [compound 90] (H-GCRFGTCTVQRLAHQIYQFTDKDKDNVAPRTNVGPNG[Hyp]-NH2; disulfide 2-7; N-terminus assumed)
